In US8952024B2, “Herbicidal pyrimidone derivatives” (E I du Pont de Nemours and Company, priority 2009, dated 2015):

How the values were obtained:
Assay in all cases: Test D pre-/postemergence plant response
Format in all cases: in vivo
Settings in all cases: Postemergence
[1] = system: barnyardgrass (Echinochloa crus-galli)
In short: (§1)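 Seeds were sown in a loam–sand blend and sprayed preemergence with compound in a non-phytotoxic solvent mixture containing surfactant; plants at 2–18 cm (1- to 4-leaf stage) received the same formulation postemergence. After 14 to 21 days in a greenhouse, injury was rated visually against untreated controls (0 = no effect, 100 = complete control).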

[2] = system: bluegrass (annual bluegrass, Poa annua)
In short: as §1

[3] = system: chickweed (common chickweed, Stellaria media)
In short: as §1

[4] = system: dallisgrass (Paspalum dilatatum)
In short: as §1

[5] = system: goosegrass (Eleusine indica)
In short: as §1

[6] = system: green foxtail (Setaria viridis)
In short: as §1

[7] = system: itchgrass (Rottboellia cochinchinensis)
In short: as §1

[8] = system: johnsongrass (Sorghum halepense)
In short: as §1

kochia (Kochia scoparia) = system: kochia (Kochia scoparia)
In short: as §1

[9] = system: large crabgrass (Digitaria sanguinalis)
In short: as §1

[10] = system: morningglory (pitted morningglory, Ipomoea lacunosa)
In short: as §1

[11] = system: nutsedge (purple nutsedge, Cyperus rotundus)
In short: as §1

[12] = system: prickly sida (Sida spinosa)
In short: as §1

[13] = system: purslane (common purslane, Portulaca oleracea)
In short: as §1

[14] = system: ragweed (common ragweed, Ambrosia elatior)
In short: as §1

[15] = system: sowthistle (common sowthistle, Sonchus oleraceous)
In short: as §1

[16] = 125 g ai/ha, scale 0 to 100 (0 no effect, 100 complete control)
[17] = 250 g ai/ha, scale 0 to 100 (0 no effect, 100 complete control)
[18] = 62 g ai/ha, scale 0 to 100 (0 no effect, 100 complete control)

SMILES: CCCCn1c(-c2ccccc2)ncc(C(=O)C2=C(O)C3CCC(C3)C2=O)c1=O (stereo not shown) [Compound 240]
- Plant response rating, Barnyardgrass ([1]; 31 g ai/ha, scale 0 to 100): 80
- Plant response rating, Barnyardgrass [1, 16]: 95
- Plant response rating, Barnyardgrass [1, 17]: 95
- Plant response rating, Barnyardgrass [1, 18]: 95
- Plant response rating, Bluegrass ([2]; 31 g ai/ha, scale 0 to 100): 5
- Plant response rating, Bluegrass [2, 16]: 35
- Plant response rating, Bluegrass [2, 17]: 35
- Plant response rating, Bluegrass [2, 18]: 35
- Plant response rating, Chickweed ([3]; 31 g ai/ha, scale 0 to 100): 25
- Plant response rating, Chickweed [3, 16]: 60
- Plant response rating, Chickweed [3, 17]: 70
- Plant response rating, Chickweed [3, 18]: 50
- Plant response rating, Dallisgrass ([4]; 31 g ai/ha, scale 0 to 100): 5
- Plant response rating, Dallisgrass [4, 16]: 75
- Plant response rating, Dallisgrass [4, 17]: 75
- Plant response rating, Dallisgrass [4, 18]: 70
- Plant response rating, Goosegrass ([5]; 31 g ai/ha, scale 0 to 100): 70
- Plant response rating, Goosegrass [5, 16]: 80
- Plant response rating, Goosegrass [5, 17]: 80
- Plant response rating, Goosegrass [5, 18]: 70
- Plant response rating, Foxtail, Green ([6]; 31 g ai/ha, scale 0 to 100): 95
- Plant response rating, Foxtail, Green [6, 16]: 98
- Plant response rating, Foxtail, Green [6, 17]: 98
- Plant response rating, Foxtail, Green [6, 18]: 98
- Plant response rating, Itchgrass ([7]; 31 g ai/ha, scale 0 to 100): 75
- Plant response rating, Itchgrass [7, 16]: 80
- Plant response rating, Itchgrass [7, 17]: 80
- Plant response rating, Itchgrass [7, 18]: 75
- Plant response rating, Johnsongrass ([8]; 31 g ai/ha, scale 0 to 100): 70
- Plant response rating, Johnsongrass [8, 16]: 95
- Plant response rating, Johnsongrass [8, 17]: 95
- Plant response rating, Johnsongrass [8, 18]: 90
- Plant response rating, Kochia (kochia (Kochia scoparia); 31 g ai/ha, scale 0 to 100): 20
- Plant response rating, Kochia (kochia (Kochia scoparia); [16]): 65
- Plant response rating, Kochia (kochia (Kochia scoparia); [17]): 70
- Plant response rating, Kochia (kochia (Kochia scoparia); [18]): 65
- Plant response rating, Crabgrass, Large ([9]; 31 g ai/ha, scale 0 to 100): 40
- Plant response rating, Crabgrass, Large [9, 16]: 65
- Plant response rating, Crabgrass, Large [9, 17]: 70
- Plant response rating, Crabgrass, Large [9, 18]: 65
- Plant response rating, Morningglory ([10]; 31 g ai/ha, scale 0 to 100): 65
- Plant response rating, Morningglory [10, 16]: 90
- Plant response rating, Morningglory [10, 17]: 95
- Plant response rating, Morningglory [10, 18]: 80
- Plant response rating, Nutsedge, Purple ([11]; 31 g ai/ha, scale 0 to 100): 0
- Plant response rating, Nutsedge, Purple [11, 16]: 5
- Plant response rating, Nutsedge, Purple [11, 17]: 20
- Plant response rating, Nutsedge, Purple [11, 18]: 5
- Plant response rating, Prickly Sida ([12]; 31 g ai/ha, scale 0 to 100): 35
- Plant response rating, Prickly Sida [12, 16]: 75
- Plant response rating, Prickly Sida [12, 17]: 75
- Plant response rating, Prickly Sida [12, 18]: 65
- Plant response rating, Purslane ([13]; 31 g ai/ha, scale 0 to 100): 0
- Plant response rating, Purslane [13, 17]: 50
- Plant response rating, Purslane [13, 18]: 35
- Plant response rating, Ragweed ([14]; 31 g ai/ha, scale 0 to 100): 70
- Plant response rating, Ragweed [14, 16]: 80
- Plant response rating, Ragweed [14, 17]: 90
- Plant response rating, Ragweed [14, 18]: 75
- Plant response rating, Sowthistle ([15]; 31 g ai/ha, scale 0 to 100): 98
- Plant response rating, Sowthistle [15, 16]: 98
- Plant response rating, Sowthistle [15, 17]: 98
- Plant response rating, Sowthistle [15, 18]: 98

SMILES: COCCCn1c(-c2cc(F)cc(F)c2)ncc(C(=O)C2=C(O)C3CCC(C3)C2=O)c1=O (stereo not shown) [Compound 244]
- Plant response rating, Barnyardgrass ([1]; 31 g ai/ha, scale 0 to 100): 80
- Plant response rating, Barnyardgrass [1, 16]: 85
- Plant response rating, Barnyardgrass [1, 17]: 90
- Plant response rating, Barnyardgrass [1, 18]: 80
- Plant response rating, Bluegrass ([2]; 31 g ai/ha, scale 0 to 100): 0
- Plant response rating, Bluegrass [2, 16]: 10
- Plant response rating, Bluegrass [2, 17]: 20
- Plant response rating, Bluegrass [2, 18]: 10
- Plant response rating, Chickweed ([3]; 31 g ai/ha, scale 0 to 100): 15
- Plant response rating, Chickweed [3, 16]: 40
- Plant response rating, Chickweed [3, 17]: 60
- Plant response rating, Chickweed [3, 18]: 20
- Plant response rating, Dallisgrass ([4]; 31 g ai/ha, scale 0 to 100): 40
- Plant response rating, Dallisgrass [4, 16]: 75
- Plant response rating, Dallisgrass [4, 17]: 80
- Plant response rating, Dallisgrass [4, 18]: 75
- Plant response rating, Goosegrass ([5]; 31 g ai/ha, scale 0 to 100): 50
- Plant response rating, Goosegrass [5, 16]: 70
- Plant response rating, Goosegrass [5, 17]: 70
- Plant response rating, Goosegrass [5, 18]: 60
- Plant response rating, Foxtail, Green ([6]; 31 g ai/ha, scale 0 to 100): 75
- Plant response rating, Foxtail, Green [6, 16]: 95
- Plant response rating, Foxtail, Green [6, 17]: 100
- Plant response rating, Foxtail, Green [6, 18]: 90
- Plant response rating, Itchgrass ([7]; 31 g ai/ha, scale 0 to 100): 60
- Plant response rating, Itchgrass [7, 16]: 75
- Plant response rating, Itchgrass [7, 17]: 75
- Plant response rating, Itchgrass [7, 18]: 70
- Plant response rating, Johnsongrass ([8]; 31 g ai/ha, scale 0 to 100): 70
- Plant response rating, Johnsongrass [8, 16]: 75
- Plant response rating, Johnsongrass [8, 17]: 75
- Plant response rating, Johnsongrass [8, 18]: 70
- Plant response rating, Kochia (kochia (Kochia scoparia); 31 g ai/ha, scale 0 to 100): 25
- Plant response rating, Kochia (kochia (Kochia scoparia); [16]): 50
- Plant response rating, Kochia (kochia (Kochia scoparia); [17]): 65
- Plant response rating, Kochia (kochia (Kochia scoparia); [18]): 50
- Plant response rating, Crabgrass, Large ([9]; 31 g ai/ha, scale 0 to 100): 70
- Plant response rating, Crabgrass, Large [9, 16]: 75
- Plant response rating, Crabgrass, Large [9, 17]: 75
- Plant response rating, Crabgrass, Large [9, 18]: 75
- Plant response rating, Morningglory ([10]; 31 g ai/ha, scale 0 to 100): 65
- Plant response rating, Morningglory [10, 16]: 75
- Plant response rating, Morningglory [10, 17]: 75
- Plant response rating, Morningglory [10, 18]: 70
- Plant response rating, Nutsedge, Purple ([11]; 31 g ai/ha, scale 0 to 100): 0
- Plant response rating, Nutsedge, Purple [11, 16]: 10
- Plant response rating, Nutsedge, Purple [11, 17]: 35
- Plant response rating, Nutsedge, Purple [11, 18]: 0
- Plant response rating, Prickly Sida ([12]; 31 g ai/ha, scale 0 to 100): 25
- Plant response rating, Prickly Sida [12, 16]: 40
- Plant response rating, Prickly Sida [12, 17]: 60
- Plant response rating, Prickly Sida [12, 18]: 35
- Plant response rating, Purslane ([13]; 31 g ai/ha, scale 0 to 100): 25
- Plant response rating, Purslane [13, 16]: 50
- Plant response rating, Purslane [13, 17]: 50
- Plant response rating, Purslane [13, 18]: 50
- Plant response rating, Ragweed ([14]; 31 g ai/ha, scale 0 to 100): 65
- Plant response rating, Ragweed [14, 16]: 80
- Plant response rating, Ragweed [14, 17]: 85
- Plant response rating, Ragweed [14, 18]: 70
- Plant response rating, Sowthistle ([15]; 31 g ai/ha, scale 0 to 100): 75
- Plant response rating, Sowthistle [15, 16]: 100
- Plant response rating, Sowthistle [15, 17]: 100
- Plant response rating, Sowthistle [15, 18]: 95
